# In US9388164B2, “Methods of using pyruvate kinase activators” (AGIOS PHARMACEUTICALS, INC, priority 2011, dated 2016):
# Columns and labels:
# Format in all cases: biochemical
# PKR R532W = PKR R532W (Homo sapiens, UniProt P30613, R532W); assay: PKR R532W Single Point Percent Activation Assay; conditions: compound at 1 μM; read-out: % Act. R532W
# Experimental: PKR R532W Single Point Percent Activation Assay
# (§1) A compound described herein was diluted with DMSO and tested at 1 μM concentration. The enzyme was diluted in 1× Buffer: (100 mM KCl, 50 mM Tris 7.5, 5 mM MgCl2, 1 mM DTT, 0.03% BSA). 2 μL of compound solution was first added into wells, and then 180 μL of enzyme solution was added. Assays were assembled except for ADP, and plates were stored for 60 minutes at RT. 20 μL ADP was added to start the assay and assay output was evaluated using OD340 at SpectraMax. The assay was run at room temperature.
# PKR R532W (100 ng/well), Tris pH 7.5 (50 mM), KCl (100 mM), MgCl2 (5 mM), ADP (0.36 mM), PEP (0.1 mM), NADH (180 μM), LDH (0.5 units, Sigma 59023), DTT (1 mM) and BSA (0.03%).
# PKR wt = PKR wt (Homo sapiens, UniProt P30613); assay: PKR WT Single Point Percent Activation Assay; conditions: compound at 1 μM
# Experimental: PKR WT Single Point Percent Activation Assay
# as §1
# PKR wt (100 ng/well), Tris pH 7.5 (50 mM), KCl (100 mM), MgCl2 (5 mM), ADP (0.48 mM), PEP (0.15 mM), NADH (180 μM), LDH (0.5 units, Sigma 59023), DTT (1 mM) and BSA (0.03%).
# PKR T384W = PKR T384W (Homo sapiens, UniProt P30613); assay: PKR T384W Single Point Percent Activation Assay; conditions: compound at 1 μM
# Experimental: PKR T384W Single Point Percent Activation Assay
# as §1, with “180 μL enzyme solution” for “180 μL of enzyme solution”
# PKR T384W soluble (300 ng/well), Tris pH 7.5 (50 mM), KCl (100 mM), MgCl2 (5 mM), ADP (0.08 mM), PEP (0.23 mM), NADH (180 μM), LDH (0.5 units, Sigma 59023), DTT (1 mM) and BSA (0.03%).
# PKR R510Q = PKR R510Q (Homo sapiens, UniProt P30613, R510Q); assay: PKR R510Q Single Point Percent Activation Assay; conditions: compound at 1 μM; read-out: % Act. R510Q
# Experimental: PKR R510Q Single Point Percent Activation Assay
# as §1
# PKR R510Q (40 ng/well), Tris pH 7.5 (50 mM), KCl (100 mM), MgCl2 (5 mM), ADP (0.2 mM), PEP (0.11 mM), NADH (180 μM), LDH (0.5 units, Sigma 59023), DTT (1 mM) and BSA (0.03%).
# Chain of PKR R532W (P30613 whole entry R532W): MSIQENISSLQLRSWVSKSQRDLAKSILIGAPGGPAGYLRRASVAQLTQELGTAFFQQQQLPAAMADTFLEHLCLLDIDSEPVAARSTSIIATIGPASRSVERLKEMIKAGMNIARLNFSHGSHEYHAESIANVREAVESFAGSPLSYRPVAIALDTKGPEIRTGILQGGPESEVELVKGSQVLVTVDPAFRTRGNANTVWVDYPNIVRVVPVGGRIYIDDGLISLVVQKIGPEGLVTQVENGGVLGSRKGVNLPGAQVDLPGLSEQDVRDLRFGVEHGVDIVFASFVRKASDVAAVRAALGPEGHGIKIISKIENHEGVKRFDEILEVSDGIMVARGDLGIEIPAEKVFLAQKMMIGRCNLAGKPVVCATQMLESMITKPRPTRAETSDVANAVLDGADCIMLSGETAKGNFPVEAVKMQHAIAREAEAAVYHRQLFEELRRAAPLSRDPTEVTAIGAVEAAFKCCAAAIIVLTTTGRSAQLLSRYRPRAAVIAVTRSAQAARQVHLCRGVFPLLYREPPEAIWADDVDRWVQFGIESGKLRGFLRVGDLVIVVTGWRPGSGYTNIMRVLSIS
# Chain of PKR T384W (P30613 whole entry T384M): as the sequence (P30613 whole entry R532W) above, with T384M, W532R counted along it
# Chain of PKR wt (P30613 whole entry): as the sequence (P30613 whole entry R532W) above, with W532R counted along it
# Chain of PKR R510Q (P30613 whole entry R510Q): as the sequence (P30613 whole entry R532W) above, with R510Q, W532R counted along it
SMILES,activation at 1 µM (PKR R532W) [%],activation at 1 µM (PKR wt) [%],% Act. T384W (PKR T384W),activation at 1 µM (PKR R510Q) [%]
O=C(OC1CN(C(=O)c2ccc(NS(=O)(=O)c3cccc4cccnc34)cc2)C1)c1ccccn1,1 to 100,101 to 500,B (a % activation at 1 μM of from 101 to 500),101 to 500
COC1(Cc2ccccc2)CN(C(=O)c2ccc(NS(=O)(=O)c3cccc4cccnc34)cc2)C1,101 to 500,101 to 500,B (a % activation at 1 μM of from 101 to 500),101 to 500
O=C(c1ccc(NS(=O)(=O)c2cccc3cccnc23)c(F)c1)N1CC(Oc2ccccc2)C1,101 to 500,101 to 500,B (a % activation at 1 μM of from 101 to 500),101 to 500
Cc1cc(C(=O)N2CC(N(C)Cc3ccccc3)C2)ccc1NS(=O)(=O)c1cccc2cccnc12,101 to 500,101 to 500,A (a % activation at 1 μM of from 1 to 100),101 to 500
Cc1cc(C(=O)N2CC(OC(=O)c3ccccn3)C2)ccc1NS(=O)(=O)c1cccc2cccnc12,1 to 100,1 to 100,A (a % activation at 1 μM of from 1 to 100),101 to 500
O=C(c1ccc(NS(=O)(=O)c2cccc3cccnc23)cc1)N1CC(Nc2ccccc2)C1,1 to 100,1 to 100,A (a % activation at 1 μM of from 1 to 100),1 to 100
COc1ccccc1NC1CN(C(=O)c2ccc(NS(=O)(=O)c3cccc4cccnc34)cc2)C1,1 to 100,1 to 100,A (a % activation at 1 μM of from 1 to 100),101 to 500
COc1ccccc1NC1CN(C(=O)c2ccc(NS(=O)(=O)c3cccc4cccnc34)c(C)c2)C1,1 to 100,1 to 100,A (a % activation at 1 μM of from 1 to 100),101 to 500
COc1ccccc1NC1CN(C(=O)c2ccc(NS(=O)(=O)c3cccc4cccnc34)c(F)c2)C1,1 to 100,1 to 100,A (a % activation at 1 μM of from 1 to 100),1 to 100
COc1ccccc1NC1CN(C(=O)c2ccc(S(=O)(=O)Nc3cccc4cccnc34)cc2)C1,101 to 500,101 to 500,A (a % activation at 1 μM of from 1 to 100),101 to 500
O=C(c1ccc(S(=O)(=O)Nc2cccc3cccnc23)cc1)N1CC(OCc2ccccc2)C1,1 to 100,101 to 500,B (a % activation at 1 μM of from 101 to 500),101 to 500
Cc1cc(C(=O)N2CC(OCc3ccccc3)C2)ccc1NS(=O)(=O)c1cccc2cccnc12,1 to 100,101 to 500,B (a % activation at 1 μM of from 101 to 500),101 to 500
O=C(NC1CN(C(=O)c2ccc(NS(=O)(=O)c3cccc4cccnc34)c(F)c2)C1)c1ccccn1,1 to 100,101 to 500,B (a % activation at 1 μM of from 101 to 500),101 to 500
CN(c1ccccc1)C1CN(C(=O)c2ccc(NS(=O)(=O)c3cccc4cccnc34)cc2)C1,101 to 500,101 to 500,B (a % activation at 1 μM of from 101 to 500),101 to 500
O=C(Cc1ccccc1)OC1CN(C(=O)c2ccc(NS(=O)(=O)c3cccc4cccnc34)cc2)C1,1 to 100,101 to 500,B (a % activation at 1 μM of from 101 to 500),101 to 500
O=C(OC1CN(C(=O)c2ccc(NS(=O)(=O)c3cccc4cccnc34)c(F)c2)C1)c1ccccn1,101 to 500,101 to 500,B (a % activation at 1 μM of from 101 to 500),101 to 500

SMILES,activation at 1 µM (PKR R532W) [%],activation at 1 µM (PKR wt) [%],% Act. T384W (PKR T384W),activation at 1 µM (PKR R510Q) [%]
O=C(c1ccc(NS(=O)(=O)c2cccc3cccnc23)cc1)N1CC(NCc2ccccc2)C1,101 to 500,101 to 500,B (a % activation at 1 μM of from 101 to 500),101 to 500
COc1ncccc1NC1CN(C(=O)c2ccc(NS(=O)(=O)c3cccc4cccnc34)c(C)c2)C1,101 to 500,101 to 500,B (a % activation at 1 μM of from 101 to 500),101 to 500
COc1cccnc1NC1CN(C(=O)c2ccc(NS(=O)(=O)c3cccc4cccnc34)c(C)c2)C1,101 to 500,101 to 500,B (a % activation at 1 μM of from 101 to 500),101 to 500
COc1ccccc1OC1CN(C(=O)c2ccc(NS(=O)(=O)c3cccc4cccnc34)cc2OC)C1,101 to 500,101 to 500,B (a % activation at 1 μM of from 101 to 500),1 to 100
Cc1cc(C(=O)N2CC(Nc3ccncc3)C2)ccc1NS(=O)(=O)c1cccc2cccnc12,1 to 100,101 to 500,A (a % activation at 1 μM of from 1 to 100),1 to 100
COc1ccncc1NC1CN(C(=O)c2ccc(NS(=O)(=O)c3cccc4cccnc34)c(C)c2)C1,1 to 100,101 to 500,B (a % activation at 1 μM of from 101 to 500),1 to 100
COc1ccccc1OC1CN(C(=O)c2ccc(NS(=O)(=O)c3cccc4cccnc34)c(F)c2)C1,101 to 500,101 to 500,B (a % activation at 1 μM of from 101 to 500),1 to 100
Cc1cc(C(=O)N2CC(OC(=O)Nc3ccccn3)C2)ccc1NS(=O)(=O)c1cccc2cccnc12,101 to 500,1 to 100,A (a % activation at 1 μM of from 1 to 100),101 to 500
COc1cc(C(=O)N2CC(OC(=O)Nc3ccccn3)C2)ccc1NS(=O)(=O)c1cccc2cccnc12,1 to 100,1 to 100,A (a % activation at 1 μM of from 1 to 100),101 to 500
COc1cc(NS(=O)(=O)c2cccc3cccnc23)ccc1C(=O)N1CC(OC(=O)Nc2ccccn2)C1,101 to 500,101 to 500,B (a % activation at 1 μM of from 101 to 500),101 to 500
COc1cc(C(=O)N2CC(Oc3ccccc3OC)C2)ccc1NS(=O)(=O)c1cccc2cccnc12,101 to 500,101 to 500,B (a % activation at 1 μM of from 101 to 500),101 to 500
O=C(Nc1ccccn1)NC1CN(C(=O)c2ccc(NS(=O)(=O)c3cccc4cccnc34)cc2)C1,101 to 500,101 to 500,B (a % activation at 1 μM of from 101 to 500),101 to 500
O=C(Nc1ccccn1)OC1CN(C(=O)c2ccc(NS(=O)(=O)c3cccc4cccnc34)c(F)c2)C1,101 to 500,101 to 500,B (a % activation at 1 μM of from 101 to 500),101 to 500
CC(C)NC(=O)NC1CN(C(=O)c2ccc(NS(=O)(=O)c3cccc4cccnc34)cc2)C1,101 to 500,101 to 500,B (a % activation at 1 μM of from 101 to 500),101 to 500
Cc1cc(C(=O)N2CC(NC(=O)NC(C)C)C2)ccc1NS(=O)(=O)c1cccc2cccnc12,101 to 500,101 to 500,B (a % activation at 1 μM of from 101 to 500),101 to 500
O=C(c1ccc(NS(=O)(=O)c2cccc3cccnc23)cc1)N1CC(=Cc2ccccc2)C1,1 to 100,1 to 100,A (a % activation at 1 μM of from 1 to 100),1 to 100
